Experimental data as given in publication PMC7221086, “Trefoil factors share a lectin activity that defines their role in mucus” (Nature Communications, 2020).
Values belong to the molecule of their own block, whether it stands above or below them. Where no end group is shown, it is not given here.

Tests used:
[1] = tested on: pMucinred+GH89 (pMucinred treated with CpGH89); assay: TFF-mucin ELISA on pMucinred+GH89; assay type: binding, porcine; conditions: immobilised GH89-treated mucin, Strep-HRP detection
Method: (§1) A 50 mg ml^−1 stock of pMucin was prepared by resuspending porcine gastric mucin type III (Sigma) in PBS + 50 mM EDTA + 0.02% NaN3. This pMucin (1 ml) was dialysed (100 kDa NMWL) against 4 M guanidium hydrochloride (2 × 2.0 l) over 48 h at 4 °C. Precipitate was removed by centrifugation (8000×g, 20 min, 4 °C) and the soluble supernatant dialysed (100 kDa NMWL) against PBS (2 × 2.0 l) over 48 h at 4 °C. Half of this sample was treated with 50 µg ml^−1 CpGH89[29] at 30°C for 16 h. Both mucin samples were reduced with 10 mM DTT (30 min, 50 °C) then alkylated by the addition of 30 mM iodoacetamide (30 min, 50 °C). These samples were dialysed (100 kDa NMWL) against PBS (2 × 2.0 l) over 48 h at 4 °C. The concentration of all three mucin stock solutions were standardised to A280 = 1.5 using PBS. These samples were aliquoted, flash frozen in liquid N2 and stored at −80 °C.
(§2) A solution of pMucin, pMucinred or pMucinred+GH89 (100 µl, 1 µg ml^−1) in 100 mM bicarbonate buffer pH 9.4, was added to each well of a 96-well plate (flat-bottom Nunc MaxiSorp, ThermoFisher) and the plate gently nutated for 2 h at 25 °C. The wells were rinsed four times with 200 µl PBS-T (50 mM NaPi pH 7.4, 150 mM NaCl, 0.2% Tween-20) then blocked for 1 h at 25 °C with blocking buffer (50 mM NaPi pH 7.4, 150 mM NaCl, 5% w/v BSA). The wells were rinsed four times with 200 µl PBS-T then incubated with 100 µl blocking buffer containing TFF (various concentrations) and 1:1000 Strep-HRP (ThermoFisher) for 1 h at 25 °C. The wells were rinsed four times with 200 µl PBS-T then developed by adding 100 µl of TMB-Turbo (ThermoFisher) and incubated for 30 min at 25 °C. The reaction was quenched by the addition of 100 µl of 2 M H2SO4. Absorbance at 450 nm was read within 20 min using an EnVision 2105 Multimode Plate Reader (PerkinElmer). Data was analysed using Prism 8 (GraphPad).

[2] = tested on: pMucinred (reduced and alkylated pMucin); assay: TFF-mucin ELISA on pMucinred; assay type: binding, porcine; conditions: immobilised pMucinred, Strep-HRP detection
Method: as §1, §2

[3] = biological target: T1, mTFF1 (human TFF1, monomeric) (Homo sapiens, UniProt P04155); assay: Isothermal titration calorimetry of glycans against mTFF1; assay type: binding; conditions: ITC, pH 7.4, 25 °C; TFF1
T1 construct: PelB signal peptide (N, cleaved yes); His6 (C, cleaved yes); made in house; host or cells: E. coli T7 Express, periplasmic extraction
T1 sequence (P04155 with tags, fused parts or gaps): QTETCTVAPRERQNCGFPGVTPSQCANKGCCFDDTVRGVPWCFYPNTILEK
Method: (§3) All TFF and ligand stock solutions were prepared in the same buffer (50 mM HEPES, 50 mM NaCl, pH 7.4) and filtered (0.22 µm) just prior to titration. All control and non-binding ligand experiments were performed as 12 × 3.18 µl injections. For experiments with GlcNAc-α-1,4-Gal (Carbosynth), 25 × 1.58 µl injections were used. All runs were performed at 25 °C in a MicroCal iTC200 (Malvern).
(§4) Supplementary Table 2: Parameters used for ITC and thermodynamic terms determined for
(§5) GlcNAc-α-1,4-Gal binding to the TFFs. Data are presented as mean values ±SD for three
(§6) Protein GlcNAc-α- T n Kd ΔH ΔS -TΔS ΔG
(§7) (30 µM) 1,4-Gal (µM) (℃) (µM) (kcal · mol-1) (cal · mol-1 · K-1) (kcal · mol-1) (kcal · mol-1)

TFF2 (human TFF2) = biological target: T2, TFF2 (human TFF2) (Homo sapiens, UniProt Q03403, N38Q); assay: Isothermal titration calorimetry of glycans against TFF2; assay type: binding; conditions: ITC, pH 7.4, 25 °C; TFF2
T2 construct: with an N-terminal gp67 signal peptide and a C-terminal His10-tag; gp67 signal peptide (N, cleaved yes); made in house; host or cells: Sf21 insect cells (baculovirus), secreted
T2 sequence (Q03403 24-129 N38Q): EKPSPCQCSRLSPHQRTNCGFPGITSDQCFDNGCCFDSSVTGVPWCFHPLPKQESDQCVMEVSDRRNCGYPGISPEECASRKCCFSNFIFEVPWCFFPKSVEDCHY
Method: as §3, §4, §5, §6, §7

[4] = biological target: T3, mTFF3 (human TFF3, monomeric) (Homo sapiens, UniProt Q07654, C78S); assay: Isothermal titration calorimetry of glycans against mTFF3; assay type: binding; conditions: ITC, pH 7.4, 25 °C; TFF3
T3 construct: with an N-terminal PelB signal peptide, no interchain Cys, and a C-terminal His6-tag; PelB signal peptide (N, cleaved yes); His6 (C, cleaved yes); made in house; host or cells: E. coli T7 Express, periplasmic extraction
T3 sequence (Q07654 22-80 C78S): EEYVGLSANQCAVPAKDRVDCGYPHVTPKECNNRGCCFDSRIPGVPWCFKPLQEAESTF
Method: as §3, §4, §5, §6, §7

[5] = biological target: reduced and alkylated pMucin; assay: ELISA; conditions: read off a plot
[6] = tested on: pMucin (porcine gastric mucin); assay: TFF-mucin ELISA on pMucin; assay type: binding; conditions: immobilised pMucin, Strep-HRP detection
Method: as §1, §2

Molecule: dTFF1bio: biotinylated dimeric TFF1 construct, wild type ({Avi‑tag(biotin)}-EAQTETCTVAPRERQNCGFPGVTPSQCANKGCCFDDTVRGVPWCFYPNTIDVPPEEECEF; also: homodimer via interchain disulfide, Cys not given here)
- binding to pMucinred+GH89 by ELISA [1]: does not bind

- binding / affinity to pMucinred by ELISA [2]: completely inactive
Molecule: dTFF3bio-W47A: biotinylated dimeric TFF3 with W47A mutation ({Avi‑tag(biotin)}-EEYVGLSANQCAVPAKDRVDCGYPHVTPKECNNRGCCFDSRIPGVPACFKPLQEAECTF; also: homodimer via interchain disulfide, Cys not given here)

- affinity by ITC [3]: no detectable affinity
- affinity by ITC (TFF2 (human TFF2)): no detectable affinity
- affinity by ITC [4]: no detectable affinity
Molecule: CC(=O)N[C@H]1C(O)O[C@H](CO)[C@@H](O)[C@@H]1O (stereo partly drawn) [D-GlcNAc]

- affinity by ITC [3]: failed to show any affinity
- affinity by ITC (TFF2 (human TFF2)): failed to show any affinity
- affinity by ITC [4]: failed to show any affinity
Molecule: OC[C@H]1O[C@H](O[C@@H]2[C@H](O)[C@@H](O)C(O)O[C@@H]2CO)[C@H](O)[C@@H](O)[C@H]1O (stereo partly drawn) [Gal-α-1,4-Gal]

- response (Abs. @ 450 nm) ([5]; 25 nM TFF, parent: est. 1.2): 0.035
- response (Abs. @ 450 nm) ([5]; 1000 nM TFF, parent: est. 1.2): 0.04
Molecule: biotinylated dimeric TFF3 (from UniProt Q07654) W47A

Molecule: mTFF3bio: site-selectively biotinylated monomeric TFF3 ({Avi‑tag(biotin)}-EEYVGLSANQCAVPAKDRVDCGYPHVTPKECNNRGCCFDSRIPGVPWCFKPLQEAECTF; also: one free cysteine, interchain disulfide not formed)
- binding to pMucin by ELISA [6]: robust binding
- binding / affinity to pMucinred by ELISA [2]: robust binding
- binding to pMucinred+GH89 by ELISA [1]: no significant binding

- binding / affinity to pMucinred by ELISA [2]: barely any detectable affinity
Molecule: dTFF3bio-D20A: biotinylated dimeric TFF3 with D20A mutation ({Avi‑tag(biotin)}-EEYVGLSANQCAVPAKDRVACGYPHVTPKECNNRGCCFDSRIPGVPWCFKPLQEAECTF; also: homodimer via interchain disulfide, Cys not given here)

- affinity by ITC [3]: no detectable affinity
- affinity by ITC (TFF2 (human TFF2)): no detectable affinity
- affinity by ITC [4]: no detectable affinity
Molecule: CC(=O)N[C@H]1[C@@H](Oc2ccc([N+](=O)[O-])cc2)O[C@H](CO)[C@@H](O)[C@@H]1O [4-nitrophenyl α-D-GlcNAc]

- response (Abs. @ 450 nm) ([5]; 25 nM TFF, parent: est. 1.2): 0.04
- response (Abs. @ 450 nm) ([5]; 1000 nM TFF, parent: est. 1.2): 0.095
Molecule: biotinylated dimeric TFF3 (from UniProt Q07654) D20A

Molecule: mTFF1bio: site-selectively biotinylated monomeric TFF1 ({Avi‑tag(biotin)}-EAQTETCTVAPRERQNCGFPGVTPSQCANKGCCFDDTVRGVPWCFYPNTIDVPPEEECEF; also: one free cysteine, interchain disulfide not formed)
- binding to pMucin by ELISA [6]: robust binding
- binding / affinity to pMucinred by ELISA [2]: robust binding
- binding to pMucinred+GH89 by ELISA [1]: no significant binding

- affinity by ITC [3]: failed to show any affinity
- affinity by ITC (TFF2 (human TFF2)): failed to show any affinity
- affinity by ITC [4]: failed to show any affinity
Molecule: OC[C@H]1O[C@H](O[C@H]2[C@H](O)[C@@H](O)[C@H](O)O[C@@H]2CO)[C@H](O)[C@@H](O)[C@@H]1O [maltose]

- response (Abs. @ 450 nm) ([5]; 25 nM TFF, parent: est. 1.3): 0.68
- response (Abs. @ 450 nm) ([5]; 1000 nM TFF, parent: est. 1.3): 1
Molecule: biotinylated dimeric TFF1 (from UniProt P04155) N14A

- response (Abs. @ 450 nm) ([5]; 25 nM TFF, parent: est. 1.3): 0.06
- response (Abs. @ 450 nm) ([5]; 1000 nM TFF, parent: est. 1.3): 0.045
Molecule: biotinylated dimeric TFF1 (from UniProt P04155) W41A

- affinity by ITC [3]: no detectable affinity
- affinity by ITC (TFF2 (human TFF2)): no detectable affinity
- affinity by ITC [4]: no detectable affinity
Molecule: CC(=O)N[C@H]1[C@@H](OCc2ccccc2)O[C@H](CO)[C@@H](O)[C@@H]1O [benzyl α-D-GlcNAc]
